The target in one assay is T1, Human HDAC5 (Homo sapiens, UniProt Q9UQL6).
T1 construct: full length with C-terminal His tag, MW=51.1 kDa; His (C); host or cells: baculovirus expression system
Description: HDAC5 biochemical assay, class IIa-specific substrate. The conditions noted are these: read-out: HDAC Isoform IC50 (nM) 5. The method, boiled down: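 Two-step fluorogenic read-out: deacetylated trifluoroacetyl-lysine AMC substrate (50 μM) digested by developer, measured at Ex/Em 360/460. Deacetylation step: 0.05 ng/ul His-tagged full-length baculoviral enzyme with compound, 30 min, room temperature, pH 8.0 Tris with 1 mg/mL BSA and 1% DMSO.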

Another assay concerns the target T2, Human HDAC4 (Homo sapiens, UniProt P56524).
T2 construct: amino acids 627-1085 with N-terminal GST tag; GST (N); host or cells: baculovirus expression system
The assay can be described thus: HDAC4 biochemical assay, class IIa-specific substrate. The settings on record: read-out: HDAC Isoform IC50 (nM) 4. The method in brief:
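Two-step fluorogenic read-out: deacetylated BOC-Lys(trifluoroacetyl)-AMC (50 μM) was digested by developer and measured at Ex/Em 360/460. Deacetylation by 0.004 ng/ul HDAC4 (aa 627-1085, N-terminal GST) ran 30 min at room temperature, pH 8.0 Tris buffer, 1 mg/mL BSA, 1% DMSO.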

For the next assay, the target named is T3, Human HDAC7 (Homo sapiens, UniProt Q8WUI4).
T3 construct: (a.a. 518-end) with N-terminal GST tag; GST (N); host or cells: baculovirus expression system
T3 sequence (Q8WUI4 518-952 limits assumed): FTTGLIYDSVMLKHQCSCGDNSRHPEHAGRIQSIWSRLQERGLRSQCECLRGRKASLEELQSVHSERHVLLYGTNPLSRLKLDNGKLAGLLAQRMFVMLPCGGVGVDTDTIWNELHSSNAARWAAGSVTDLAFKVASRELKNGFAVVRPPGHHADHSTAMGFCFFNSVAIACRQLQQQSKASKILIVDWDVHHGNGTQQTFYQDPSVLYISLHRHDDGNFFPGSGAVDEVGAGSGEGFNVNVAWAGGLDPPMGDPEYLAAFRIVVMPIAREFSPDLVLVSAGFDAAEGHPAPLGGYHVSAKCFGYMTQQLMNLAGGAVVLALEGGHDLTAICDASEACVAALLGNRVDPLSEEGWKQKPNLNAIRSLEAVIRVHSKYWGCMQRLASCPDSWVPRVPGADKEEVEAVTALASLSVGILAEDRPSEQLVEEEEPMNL
Description: HDAC7 biochemical assay, class IIa-specific substrate. The conditions noted are these: read-out: HDAC Isoform IC50 (nM) 7. The method, boiled down: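 Two-step fluorogenic readout: class IIa-selective trifluoroacetyl-lysine AMC substrate (50 μM) deacetylated by N-terminal GST-HDAC7 fragment (0.001 ng/ul), then digested by developer, Ex/Em 360/460. Reaction: 30 min, room temperature, Tris-HCl pH 8.0, NaCl/KCl/MgCl2, 1 mg/mL BSA, 1% DMSO.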

The target of another assay is T4, Human HDAC1 (Homo sapiens, UniProt Q13547).
T4 construct: full length with C-terminal His-tag and C-terminal FLAG-tag; His (C); FLAG (C); host or cells: baculovirus expression system
The assay can be described thus: HDAC1 biochemical assay, AMC-labeled peptide substrate. The conditions noted are these: read-out: HDAC Isoform IC50 (nM) 1. The method, boiled down: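 Two-step fluorogenic read: HDAC1 deacetylates 50 μM acetyl-lysine AMC peptide RHKK(Ac)AMC for 1 h at 30° C (pH 8.0, 1% DMSO, with compound), then developer digests the product for fluorescence at Ex/Em 360/460. Enzyme is full-length human, His/FLAG-tagged, insect-cell expressed, at 0.3 ng/ul.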

The target of the next assay is T5, Recombinant human HDAC6 (Homo sapiens, UniProt Q9UBN7).
T5 construct: full length, MW=159 kDa; GST (N); host or cells: Sf9 insect cells (baculovirus)
T5 sequence (Q9UBN7 1-1215): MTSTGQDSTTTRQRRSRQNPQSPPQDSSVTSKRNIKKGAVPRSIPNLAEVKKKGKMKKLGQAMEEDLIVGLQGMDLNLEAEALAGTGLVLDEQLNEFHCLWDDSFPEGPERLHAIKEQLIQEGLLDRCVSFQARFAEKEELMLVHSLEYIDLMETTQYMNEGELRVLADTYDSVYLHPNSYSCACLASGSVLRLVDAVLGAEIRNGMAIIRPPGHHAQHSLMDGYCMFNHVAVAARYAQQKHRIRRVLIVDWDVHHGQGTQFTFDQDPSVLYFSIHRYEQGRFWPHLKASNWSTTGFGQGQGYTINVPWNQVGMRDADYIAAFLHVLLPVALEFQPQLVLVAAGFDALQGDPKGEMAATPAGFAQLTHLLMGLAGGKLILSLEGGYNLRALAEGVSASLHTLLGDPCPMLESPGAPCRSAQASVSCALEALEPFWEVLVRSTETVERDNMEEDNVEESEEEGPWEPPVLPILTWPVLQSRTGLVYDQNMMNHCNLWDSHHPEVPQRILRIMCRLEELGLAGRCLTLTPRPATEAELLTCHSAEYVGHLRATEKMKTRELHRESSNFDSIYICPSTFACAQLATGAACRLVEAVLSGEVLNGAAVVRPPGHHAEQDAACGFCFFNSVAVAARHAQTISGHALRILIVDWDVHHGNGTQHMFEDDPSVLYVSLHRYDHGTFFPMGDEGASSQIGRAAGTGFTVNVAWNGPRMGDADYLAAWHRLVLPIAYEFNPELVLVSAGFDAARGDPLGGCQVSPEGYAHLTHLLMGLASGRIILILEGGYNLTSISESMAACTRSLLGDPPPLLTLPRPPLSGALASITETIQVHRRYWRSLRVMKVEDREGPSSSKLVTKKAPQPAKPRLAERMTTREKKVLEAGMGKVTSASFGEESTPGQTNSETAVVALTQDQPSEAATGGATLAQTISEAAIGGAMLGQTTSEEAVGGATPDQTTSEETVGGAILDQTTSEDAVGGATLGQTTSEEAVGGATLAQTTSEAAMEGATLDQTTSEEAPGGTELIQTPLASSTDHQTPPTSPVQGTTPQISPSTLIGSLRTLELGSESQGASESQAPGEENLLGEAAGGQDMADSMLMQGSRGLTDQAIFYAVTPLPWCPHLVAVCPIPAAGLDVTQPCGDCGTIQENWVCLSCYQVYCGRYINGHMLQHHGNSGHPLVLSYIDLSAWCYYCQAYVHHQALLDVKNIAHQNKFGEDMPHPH
Description: HDAC6 biochemical assay, AMC-labeled peptide substrate. The settings on record: HDAC6; read-out: HDAC Isoform IC50 (nM) 6. The method in brief:
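Two-step fluorogenic read-out: enzyme deacetylates 50 μM RHKK(Ac)AMC for 1 h at 30° C in pH 8.0 Tris buffer with BSA and 1% DMSO, then developer cleavage gives signal at Ex 360/Em 460. Enzyme: 0.3 ng/ul recombinant full-length human HDAC6, GST-tagged, Sf9-expressed.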

Another assay addresses T6, Human HDAC9 (Homo sapiens, UniProt Q9UKV0).
T6 construct: amino acids 604-1066 with C-terminal His tag; His (C); host or cells: baculovirus expression system
The assay can be described thus: HDAC9 biochemical assay, class IIa-specific substrate. The conditions noted are these: read-out: HDAC Isoform IC50 (nM) 9. The method, boiled down:
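HDAC9 residues 604-1066 (C-terminal His tag, baculovirus-expressed) at 0.06 ng/ul with 50 μM class IIa substrate Boc-Lys(trifluoroacetyl)-AMC in Tris-HCl pH 8.0 buffer with BSA and 1% DMSO. 30 min at room temperature, then developer added; fluorescence read at 360/460 nm Ex/Em.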

Some results are limits rather than exact numbers.

T2 sequence (P56524 627-1084 limits assumed): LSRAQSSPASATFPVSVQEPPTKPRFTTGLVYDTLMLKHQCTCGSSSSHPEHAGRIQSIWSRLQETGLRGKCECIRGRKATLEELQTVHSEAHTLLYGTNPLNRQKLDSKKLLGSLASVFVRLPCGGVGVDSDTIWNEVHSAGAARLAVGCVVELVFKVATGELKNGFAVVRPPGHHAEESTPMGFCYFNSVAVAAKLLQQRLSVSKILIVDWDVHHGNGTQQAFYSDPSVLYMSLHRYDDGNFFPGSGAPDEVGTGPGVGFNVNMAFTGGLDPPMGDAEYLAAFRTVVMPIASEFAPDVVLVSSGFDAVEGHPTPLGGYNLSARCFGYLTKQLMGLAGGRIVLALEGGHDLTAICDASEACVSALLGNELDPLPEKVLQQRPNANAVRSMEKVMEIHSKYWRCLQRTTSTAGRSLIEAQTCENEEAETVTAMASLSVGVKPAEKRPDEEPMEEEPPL
T6 sequence (Q9UKV0 604-1066 isoform Q9UKV0-5): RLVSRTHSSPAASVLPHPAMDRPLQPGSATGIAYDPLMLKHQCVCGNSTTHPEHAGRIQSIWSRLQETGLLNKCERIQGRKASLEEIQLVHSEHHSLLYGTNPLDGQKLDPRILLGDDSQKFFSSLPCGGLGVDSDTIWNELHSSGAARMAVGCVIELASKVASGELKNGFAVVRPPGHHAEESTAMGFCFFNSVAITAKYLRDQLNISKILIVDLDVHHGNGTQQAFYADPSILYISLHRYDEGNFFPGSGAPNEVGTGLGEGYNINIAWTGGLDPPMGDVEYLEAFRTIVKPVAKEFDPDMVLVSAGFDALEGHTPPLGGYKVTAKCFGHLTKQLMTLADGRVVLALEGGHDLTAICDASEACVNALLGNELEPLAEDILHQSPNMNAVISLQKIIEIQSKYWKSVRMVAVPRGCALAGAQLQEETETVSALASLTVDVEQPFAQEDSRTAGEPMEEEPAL
T4 sequence (Q13547 whole entry): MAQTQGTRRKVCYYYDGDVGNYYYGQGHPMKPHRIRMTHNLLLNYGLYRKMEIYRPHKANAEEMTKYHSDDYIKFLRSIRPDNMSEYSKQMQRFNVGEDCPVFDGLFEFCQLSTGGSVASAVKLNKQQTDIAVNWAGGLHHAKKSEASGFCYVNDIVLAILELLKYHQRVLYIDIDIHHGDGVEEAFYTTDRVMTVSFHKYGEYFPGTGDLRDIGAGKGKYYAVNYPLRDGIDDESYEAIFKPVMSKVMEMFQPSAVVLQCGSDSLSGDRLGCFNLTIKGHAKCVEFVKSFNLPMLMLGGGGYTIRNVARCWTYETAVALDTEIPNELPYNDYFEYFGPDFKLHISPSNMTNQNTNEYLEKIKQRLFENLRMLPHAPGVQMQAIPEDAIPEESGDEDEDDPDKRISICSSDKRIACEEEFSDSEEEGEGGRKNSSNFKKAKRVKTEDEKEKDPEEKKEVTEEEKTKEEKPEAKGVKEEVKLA
T1 sequence (Q9UQL6 656-1122 limits assumed): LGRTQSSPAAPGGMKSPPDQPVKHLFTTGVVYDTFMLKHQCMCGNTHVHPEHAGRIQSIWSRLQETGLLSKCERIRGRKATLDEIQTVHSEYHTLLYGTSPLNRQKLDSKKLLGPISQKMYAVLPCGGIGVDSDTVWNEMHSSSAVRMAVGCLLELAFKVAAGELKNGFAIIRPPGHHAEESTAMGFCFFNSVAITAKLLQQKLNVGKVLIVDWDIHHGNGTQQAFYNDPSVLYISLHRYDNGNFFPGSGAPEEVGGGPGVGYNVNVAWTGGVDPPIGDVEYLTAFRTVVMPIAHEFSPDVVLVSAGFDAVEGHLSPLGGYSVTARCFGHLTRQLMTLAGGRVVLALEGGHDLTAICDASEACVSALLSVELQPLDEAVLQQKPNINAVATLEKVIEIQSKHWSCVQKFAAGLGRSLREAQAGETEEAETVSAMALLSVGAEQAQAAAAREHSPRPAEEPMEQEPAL

For orientation: IC50 means the concentration needed to halve the response being measured. Turning to `Cc1cnc(C)c(N(Cc2ccc(-c3noc(C(F)(F)F)n3)s2)c2cnccn2)n1` [Example BU, 3,6-Dimethyl-N-(pyrazin-2-yl)-N-({5-[5-(trifluoromethyl)-1,2,4-oxadiazol-3-yl]thiophen-2-yl}methyl)pyrazin-2-amine], the IC50 was not above 500 nM on Human HDAC5; not above 500 nM at Human HDAC4; not above 1000 nM at Human HDAC7; more than 10000 nM on Human HDAC1; not above 10000 nM on Recombinant human HDAC6; not above 1000 nM on Human HDAC9.
Take `Cc1cnc(N(Cc2ccc(-c3noc(C(F)(F)F)n3)s2)c2cnccn2)c(C)n1` [Example BV, 3,5-Dimethyl-N-(pyrazin-2-yl)-N-({5-[5-(trifluoromethyl)-1,2,4-oxadiazol-3-yl]thiophen-2-yl}methyl)pyrazin-2-amine]: the IC50 at Human HDAC5 was not above 500 nM; at Human HDAC4 it was not above 500 nM; at Human HDAC7, not above 1000 nM; on Human HDAC1, more than 10000 nM; at Recombinant human HDAC6, not above 10000 nM; on Human HDAC9 it was not above 1000 nM.
`COc1ncc(N(Cc2ccc(-c3noc(C(F)(F)F)n3)s2)c2cnccn2)nc1OC` [Example BW, 5,6-Dimethoxy-N-(pyrazin-2-yl)-N-({5-[5-(trifluoromethyl)-1,2,4-oxadiazol-3-yl]thiophen-2-yl}methyl)pyrazin-2-amine]: the IC50 at Human HDAC5 is not above 10000 nM; on Human HDAC4, not above 10000 nM; at Human HDAC7 it was not above 10000 nM; at Human HDAC1 it was more than 10000 nM; at Recombinant human HDAC6, not above 10000 nM; at Human HDAC9, not above 10000 nM.
For the molecule `Cc1cncc(N(Cc2ccc(-c3noc(C(F)(F)F)n3)s2)c2cncc(C)n2)n1` [Example BX, 6-Methyl-N-(6-methylpyrazin-2-yl)-N-({5-[5-(trifluoromethyl)-1,2,4-oxadiazol-3-yl]thiophen-2-yl}methyl)pyrazin-2-amine], the half-maximal inhibitory concentration (IC50) was not above 10000 nM on Human HDAC5; more than 10000 nM at Human HDAC4; not above 10000 nM on Human HDAC7; more than 10000 nM on Human HDAC1; not above 10000 nM on Recombinant human HDAC6; not above 10000 nM on Human HDAC9.
Regarding `COc1cncc(N(Cc2ccc(-c3noc(C(F)(F)F)n3)s2)c2cncc(OC)n2)n1` [Example BY, 6-Methoxy-N-(6-methoxypyrazin-2-yl)-N-({5-[5-(trifluoromethyl)-1,2,4-oxadiazol-3-yl]thiophen-2-yl}methyl)pyrazin-2-amine], the half-maximal inhibitory concentration (IC50) on Human HDAC5 is not above 10000 nM; on Human HDAC4 it was not above 10000 nM; on Human HDAC7, not above 10000 nM; at Human HDAC1, more than 10000 nM; at Recombinant human HDAC6, not above 10000 nM; on Human HDAC9 it was not above 10000 nM.
Consider `Cc1nccc(N(Cc2ccc(-c3noc(C(F)(F)F)n3)s2)c2cnccn2)n1` [Example CA, 2-Methyl-N-(pyrazin-2-yl)-N-({5-[5-(trifluoromethyl)-1,2,4-oxadiazol-3-yl]thiophen-2-yl}methyl)pyrimidin-4-amine], for which the half-maximal inhibitory concentration (IC50) on Human HDAC5 is not above 1000 nM; at Human HDAC4, not above 1000 nM; at Human HDAC7, not above 1000 nM; at Human HDAC1 it was more than 10000 nM; at Recombinant human HDAC6 it was not above 10000 nM; on Human HDAC9, not above 1000 nM.
On to `COc1nccc(N(Cc2ccc(-c3noc(C(F)(F)F)n3)s2)c2cnccn2)n1` [Example CB, 2-Methoxy-N-(pyrazin-2-yl)-N-({5-[5-(trifluoromethyl)-1,2,4-oxadiazol-3-yl]thiophen-2-yl}methyl)pyrimidin-4-amine], for which the half-inhibitory concentration (IC50) on Human HDAC5 was not above 1000 nM; at Human HDAC4, not above 500 nM; at Human HDAC7 it was not above 1000 nM; at Human HDAC1 it was more than 10000 nM; at Recombinant human HDAC6, not above 1000 nM; at Human HDAC9 it was not above 10000 nM.
`CN(C)c1nccc(N(Cc2ccc(-c3noc(C(F)(F)F)n3)s2)c2cnccn2)n1` [Example CC, N2,N2-Dimethyl-N4-(pyrazin-2-yl)-N4-({5-[5-(trifluoromethyl)-1,2,4-oxadiazol-3-yl]thiophen-2-yl}methyl)pyrimidine-2,4-diamine]: the IC50 on Human HDAC5 is not above 10000 nM; on Human HDAC4, not above 10000 nM; on Human HDAC7, not above 10000 nM; at Human HDAC1 it was more than 10000 nM; on Recombinant human HDAC6 it was not above 10000 nM; on Human HDAC9 it was not above 10000 nM.
Regarding `FC(F)(F)c1nccc(N(Cc2ccc(-c3noc(C(F)(F)F)n3)s2)c2cnccn2)n1` [Example CD, N-(Pyrazin-2-yl)-2-(trifluoromethyl)-N-({5-[5-(trifluoromethyl)-1,2,4-oxadiazol-3-yl]thiophen-2-yl}methyl)pyrimidin-4-amine], the IC50 was not above 1000 nM at Human HDAC5; not above 1000 nM at Human HDAC4; not above 1000 nM on Human HDAC7; more than 10000 nM at Human HDAC1; not above 10000 nM on Recombinant human HDAC6; not above 1000 nM at Human HDAC9.
`FC(F)(F)c1nc(-c2ccc(CN(c3cnccn3)c3ccnc4ccnn34)s2)no1` [Example CF, N-{Pyrazolo[1,5-a]pyrimidin-7-yl}-N-({5-[5-(trifluoromethyl)-1,2,4-oxadiazol-3-yl]thiophen-2-yl}methyl)pyrazin-2-amine]: the IC50 at Human HDAC5 was not above 10000 nM; on Human HDAC4 it was not above 1000 nM; at Human HDAC7 it was not above 10000 nM; on Human HDAC1, more than 10000 nM; at Recombinant human HDAC6, not above 10000 nM; at Human HDAC9, not above 10000 nM.
